Data reported in patent US20230365561A1, “BETA-LACTAMASE INHIBITORS AND THEIR PREPARATION” (NINGXIA ACADEMY OF AGRICUL TURE AND FORESTRY SCIENCES, priority 2020, published 2023).
Structures can show the parent of a compound that is named as a salt. Where two headings read alike, the source gives them in different places.

What was measured:
Assay type in all cases: cell-based
[1] = test system: P. aeruginosa 9027 (strain 10); test: MIC by broth microdilution (alone and in combination with meropenam), strain 10; conditions: Pseudomonas aeruginosa, compound alone
Protocol: (§1) Compounds of the present invention alone, meropenam (MER) alone, and as a combination with test antibiotic (meropenam) were tested for antimicrobial activity by determing minimum inhibitory concentration (MIC, mg/L) using the broth microdilution method according to the guidelines of the Clinical Laboratories and Stansards Insitute (“Methods for Dilution Antimicrobial Suscetibility Tests for Bacterial that Grow Aerobiclly”, Approved standard, […]., Clinical and Laboratories Stanards Institute (CLSI) Document M7-A8, Wayne, Pa., USA, 2009). Meropenam as a test antibiotic compound was dissolved in DMSO. Meropenam was then diluted in microbial growth medium (Mueller-Hinton Broth II, cation adjusted) resulting in a final concention range of 0.125-64 mg/L in serial two-fold dilution. In all cases the filnal DMSO concentraion was less than 0.5%. Bacteria were added to 96-well microtitre plates containing the serial two-fold dilutions of the compoumds; the final cell density was appoximately 5x10^5 colony forming units/mL (CFU/mL). Plates were incubated at 37° C. for 18-24 hours and read visually. The MIC, i.e. the lowest concentration of the test compound that inhibited visible growth of the bacteria, was recorded. The same assay conditions were used when the compounds of present invention alone, and as a combination with test meropenam antibiotic compound was tested for minmum inhibitory concentration (MIC, mg/L). Whileest meropenam was serially diluted as descrribed above, a constant concentration of the present invention of 4 µg/mL was used.
(§2) Bacterial strains that were used to evaluate the antimicrobial activity using the MIC determination included but were not limited to E. coli clinical isolate (strain 1), E. coli 8739 (strain 2), K. pneumoniae clinical isolate (strain 3), K. pneumoniae 700603 (strain 4), E. cloacae clinical isolate (strain 5), E. cloacae 700323 (strain 6), A. baumannii clinical isolate (strain 7), A. baumannii 19606 (strain 8), P. aeruginosa clinical isolate (strain 9), P. aeruginosa 9027 (strain 10).

[2] = test system: K. pneumoniae 700603 (strain 4); test: MIC by broth microdilution (alone and in combination with meropenam), strain 4; conditions: Klebsiella pneumoniae, compound alone
Protocol: as §1, §2

[3] = test system: E. cloacae clinical isolate (strain 5); test: MIC by broth microdilution (alone and in combination with meropenam), strain 5; conditions: Enterobacter cloacae, compound alone
Protocol: as §1, §2

[4] = test system: K. pneumoniae clinical isolate (strain 3); test: MIC by broth microdilution (alone and in combination with meropenam), strain 3; conditions: Klebsiella pneumoniae, compound alone
Protocol: as §1, §2

[5] = test system: A. baumannii 19606 (strain 8); test: MIC by broth microdilution (alone and in combination with meropenam), strain 8; conditions: Acinetobacter baumannii, compound alone
Protocol: as §1, §2

[6] = test system: E. cloacae 700323 (strain 6); test: MIC by broth microdilution (alone and in combination with meropenam), strain 6; conditions: Enterobacter cloacae, compound alone
Protocol: as §1, §2

[7] = test system: A. baumannii clinical isolate (strain 7); test: MIC by broth microdilution (alone and in combination with meropenam), strain 7; conditions: Acinetobacter baumannii, compound alone
Protocol: as §1, §2

E. coli 8739 (strain 2) = test: MIC by broth microdilution (alone and in combination with meropenam), strain 2; conditions: Escherichia coli, compound alone
Protocol: as §1, §2

[8] = test system: P. aeruginosa clinical isolate (strain 9); test: MIC by broth microdilution (alone and in combination with meropenam), strain 9; conditions: Pseudomonas aeruginosa, compound alone
Protocol: as §1, §2

[9] = test system: E. coli clinical isolate (strain 1); test: MIC by broth microdilution (alone and in combination with meropenam), strain 1; conditions: Escherichia coli, compound alone
Protocol: as §1, §2

[10] = read-out: MIC, antibacterial activity of example alone

Measured: MIC

CN1CC[C@@H](C(=O)NC(=N)[C@@H]2CC[C@@H]3CN2C(=O)N3OS(=O)(=O)O)C1 [Ex.33, Sodium (2S,5R)-2-(N-((R)-1-methylpyrrolidine-3-carbonyl)carbamimidoyl)-7-oxo-1,6-diazabicyclo[3.2.1]octan-6-yl Sulfate]
> 64 µg/mL: [1]; [10] | [2]; [10] | [3]; [10] | [4]; [10] | [5]; [10] | [6]; [10] | [7]; [10] | E. coli 8739 (strain 2); [10] | [8]; [10] | [9]; [10]

N=C(NC(=O)c1csc(C(F)(F)F)n1)[C@@H]1CC[C@@H]2CN1C(=O)N2OS(=O)(=O)[O-].[Na+] [Ex.24, Sodium (2S,5R)-7-oxo-2-(N-(2-(trifluoromethyl)thiazole-4-carbonyl)carbamimidoyl)-1,6-diazabicyclo[3.2.1]octan-6-yl Sulfate]
> 64 µg/mL: [1]; [10] | [2]; [10] | [3]; [10] | [4]; [10] | [5]; [10] | [6]; [10] | [7]; [10] | E. coli 8739 (strain 2); [10] | [8]; [10] | [9]; [10]

N=C(N)NCCC(=O)NC(=N)[C@@H]1CC[C@@H]2CN1C(=O)N2OS(=O)(=O)O [Ex.51, (2S,5R)-2-(N-(3-guanidinopropanoyl)carbamimidoyl)-7-oxo-1,6-diazabicyclo[3.2.1]octan-6-yl Hydrogen Sulfate]
> 64 µg/mL: [1]; read-out: MIC | [2]; read-out: MIC | [3]; read-out: MIC | [4]; read-out: MIC | [5]; read-out: MIC | [6]; read-out: MIC | [7]; read-out: MIC | E. coli 8739 (strain 2); read-out: MIC | [8]; read-out: MIC | [9]; read-out: MIC

N=C(NC(=O)c1ccco1)[C@@H]1CC[C@@H]2CN1C(=O)N2OS(=O)(=O)O [Ex.1, (2S,5R)-2-(N-(furan-2-carbonyl)carbamimidoyl)-7-oxo-1,6-diazabicyclo[3.2.1]octan-6-yl Hydrogen Sulfate]
> 64 µg/mL: [1]; [10] | [2]; [10] | [3]; [10] | [4]; [10] | [5]; [10] | [6]; [10] | [7]; [10] | E. coli 8739 (strain 2); [10] | [8]; [10] | [9]; [10]

N=C(NC(=O)c1nc(-c2ccccc2)cs1)[C@@H]1CC[C@@H]2CN1C(=O)N2OS(=O)(=O)[O-].[Na+] [Ex.44, Sodium (2S,5R)-7-oxo-2-(N-(4-phenylthiazole-2-carbonyl)carbamimidoyl)-1,6-diazabicyclo[3.2.1]octan-6-yl Sulfate]
> 64 µg/mL: [1]; [10] | [2]; [10] | [3]; [10] | [4]; [10] | [5]; [10] | [6]; [10] | [7]; [10] | E. coli 8739 (strain 2); [10] | [8]; [10] | [9]; [10]

N=C(NC(=O)c1nc(N)cs1)[C@@H]1CC[C@@H]2CN1C(=O)N2OS(=O)(=O)[O-].[Na+] [Ex.22, Sodium (2S,5R)-2-(N-(4-aminothiazole-2-carbonyl)carbamimidoyl)-7-oxo-1,6-diazabicyclo[3.2.1]octan-6-yl Sulfate]
> 64 µg/mL: [1]; [10] | [2]; [10] | [3]; [10] | [4]; [10] | [5]; [10] | [6]; [10] | [7]; [10] | E. coli 8739 (strain 2); [10] | [8]; [10] | [9]; [10]

N=C(N)NOCCC(=O)NC(=N)[C@@H]1CC[C@@H]2CN1C(=O)N2OS(=O)(=O)O [Ex.43, (2S,5R)-2-(N-(3-(guanidinooxy)propanoyl)carbamimidoyl)-7-oxo-1,6-diazabicyclo[3.2.1]octan-6-yl Hydrogen Sulfate]
> 64 µg/mL: [1]; [10] | [2]; [10] | [3]; [10] | [4]; [10] | [5]; [10] | [6]; [10] | [7]; [10] | E. coli 8739 (strain 2); [10] | [8]; [10] | [9]; [10]

CC(=O)NCCC(=O)NC(=N)[C@@H]1CC[C@@H]2CN1C(=O)N2OS(=O)(=O)[O-].[Na+] [Ex.19, Sodium (2S,5R)-2-(N-(3-acetamidopropanoyl)carbamimidoyl)-7-oxo-1,6-diazabicyclo[3.2.1]octan-6-yl Sulfate]
> 64 µg/mL: [1]; [10] | [2]; [10] | [3]; [10] | [4]; [10] | [5]; [10] | [6]; [10] | [7]; [10] | E. coli 8739 (strain 2); [10] | [8]; [10] | [9]; [10]

N#Cc1ccc(C(=O)NC(=N)[C@@H]2CC[C@@H]3CN2C(=O)N3OS(=O)(=O)[O-])cc1.[Na+] [Ex.45, Sodium (2S,5R)-2-(N-(4-cyanobenzoyl)carbamimidoyl)-7-oxo-1,6-diazabicyclo[3.2.1]octan-6-yl Sulfate]
> 64 µg/mL: [1]; read-out: MIC | [2]; read-out: MIC | [3]; read-out: MIC | [4]; read-out: MIC | [5]; read-out: MIC | [6]; read-out: MIC | [7]; read-out: MIC | E. coli 8739 (strain 2); read-out: MIC | [8]; read-out: MIC | [9]; read-out: MIC

CN1CCC[C@@H](C(=O)NC(=N)[C@@H]2CC[C@@H]3CN2C(=O)N3OS(=O)(=O)[O-])C1.[Na+] [Ex.29, Sodium (2S,5R)-2-(N-((R)-1-methylpiperidine-3-carbonyl)carbamimidoyl)-7-oxo-1,6-diazabicyclo[3.2.1]octan-6-yl Sulfate]
> 64 µg/mL: [1]; [10] | [2]; [10] | [3]; [10] | [4]; [10] | [5]; [10] | [6]; [10] | [7]; [10] | E. coli 8739 (strain 2); [10] | [8]; [10] | [9]; [10]

N=C(NC(=O)c1ccccc1)[C@@H]1CC[C@@H]2CN1C(=O)N2OS(=O)(=O)O [Ex.2, (2S,5R)-2-(N-benzoylcarbamimidoyl)-7-oxo-1,6-diazabicyclo[3.2.1]octan-6-yl Hydrogen Sulfate]
> 64 µg/mL: [1]; [10] | [2]; [10] | [3]; [10] | [4]; [10] | [5]; [10] | [6]; [10] | [7]; [10] | E. coli 8739 (strain 2); [10] | [8]; [10] | [9]; [10]
